In paper PMC9611758, “Bioactive Platinum(IV) Complexes Incorporating Halogenated Phenylacetates” (Molecules, 2022):
“And” between values parts separate entries of the source, which are not always exact repeats. Identical values can stand only once. “Also recorded” adds a separate entry of the source. Like-named read-outs stand apart in the source and are kept apart here.

What was measured:
Du145 prostate = experiment: MTT growth inhibition assay, Du145; assay type: cell-based, human; conditions: for GI50: MTT assay, 72 h
MCF-7 breast = experiment: MTT growth inhibition assay, MCF-7; assay type: cell-based, human; conditions: MTT assay, 72 h
U87 glioblastoma = experiment: MTT growth inhibition assay, U87; assay type: cell-based, human; conditions: 72 h
A2780 ovarian = experiment: MTT growth inhibition assay, A2780; assay type: cell-based, human; conditions: 72 h
A431 skin = experiment: MTT growth inhibition assay, A431; assay type: cell-based, human; conditions: 72 h
H460 lung = experiment: MTT growth inhibition assay, H460; assay type: cell-based, human; conditions: 72 h
HT29 colon = experiment: MTT growth inhibition assay, HT29; assay type: cell-based, human; conditions: MTT assay, 72 h
[1] = tested on: ADDP-resistant ovarian variant; experiment: MTT growth inhibition assay, ADDP; assay type: cell-based, human; conditions: for GI50: MTT assay, 72 h
panel of cell lines = experiment: MTT growth inhibition assay, whole panel of cell lines; assay type: cell-based, human; conditions: average over the cell lines tested, MTT assay, 72 h
MIA pancreas = experiment: MTT growth inhibition assay, MIA; assay type: cell-based, human; conditions: 72 h
[2] = Reduction experiments with AsA by 1H-NMR and 1D-195Pt-NMR; assay type: physicochemical; conditions: D2O, 37 °C; for T50% (approximate time at which 50% reduction occurs): 10 mM PBS (~7.4 pH), 1H-NMR; for extent of reduction 1 h after the final 1H-NMR experiment (1D-195Pt-NMR): PBS, regions −2800 and 400 ppm
From the text: Platinum(IV) complexes are reduced to their platinum(II) precursors by intracellular biological reducing agents such as AsA or GSH in tumour cells. However, the precise mechanism by which reduction occurs is not fully understood. In this paper, reduction reaction experiments were undertaken on the synthesised platinum(IV) complexes, 1–8, with the aid of ^1H-NMR and 1D-^195Pt-NMR spectroscopy. The method used for the reduction reaction experiments was adapted from the literature without modifications. A total of 10 mM PBS (~7.4 pH) was selected as media, and AsA was used as the biological reducing agent to investigate the reduction property of 1–8. Prior to the reduction reaction experiments, a control was prepared where each metal complex was dissolved with PBS in D2O. 1D-^195Pt-NMR was measured within the regions of −2800 and 400 ppm (30 min per region), at 37 °C. This was undertaken to confirm that the PBS would not interfere with the reduction process of the metal complexes. […] The approximate time points for the studied complexes at which an estimated 50% reduction had occurred, in the presence of AsA, as represented by T50%, are summarised in Table 6.
The reduction properties of 1–8 were monitored using ^1H-NMR and 1D-^195Pt-NMR spectroscopy on a 400 MHz Bruker (Melbourne, VIC, Australia) Avance Spectrometer. A sequence of ^1H-NMR experiments was carried out for 1 h at 37 °C, followed by 1D-^195Pt-NMR within the regions of −2800 and 400 ppm. An amount of 10 mM PBS (~7.4 pH) was transferred to a vial and reduced to dryness through rotary evaporation. AsA (~1 mg) was combined with the metal complex (~5 mg) and transferred to the vial containing the dried PBS. A total of 600 µL of D2O was then added to the vial to dissolve the complex, AsA, and the PBS together.

[3] = Lipophilicity by HPLC (log kw); assay type: physicochemical; conditions: for log kw: chromatographic lipophilicity index, extrapolated to 100% d.i.H2O; for log kw (y-intercept of log k versus [CH3CN] % plot, Figure S80): linear fit
From the text: For lipophilicity measurements, HPLC was utilised instead of the traditional shake-flask method, as described previously. Recent studies have also reported the efficiency of HPLC in measuring the lipophilicity of compounds [79, 80]. Each complex was eluted under several isocratic ratios. A standard curve was generated to calculate the log value of the capacity factor (log k) according to Equation (1). Following Equation (2), the percentage of organic solvent (CH3CN) in the mobile phase from each isocratic run was plotted against log kw (Figure S80). Log kw is the chromatographic lipophilicity index or measure of lipophilicity of the complex, so a higher value corresponds to greater lipophilicity. Because the selected axial ligands in this study contain F, Cl, Br, and I, it was only appropriate to determine the influence of the halogens on the overall lipophilicity of the platinum(IV) complexes. […] Conversely, the least lipophilic complex was the phen derivative containing 4-FPA, 3, with a log kw of 0.25. Furthermore, for the phen derivatives, the order of increasing lipophilicity was 3 > 1 > 5 > 7, which corresponds to the order of increasing size of the halogens, F > Cl > Br > I. This pattern was also observed with the 5,6-Me2phen derivatives (4 > 2 > 6 > 8), thereby confirming that the halogens increased the order of lipophilicity accordingly based on their size.
For lipophilicity measurements, analytical HPLC was utilised. Elution profiles were acquired on an Agilent (Melbourne, VIC, Australia) Technologies 1260 Infinity instrument equipped with a Phenomenex Onyx^TM Monolithic C18-reverse phase column (100 × 4.6 mm, 5 µm pore size) (Sydney, NSW, Australia). The mobile phase consisted of solvents, A (0.06% TFA in d.i.H2O) and B (0.06% TFA in CH3CN/d.i.H2O (90:10)). Potassium iodide was used as an external dead volume marker to determine the dead time of the column. Retention times (TR) were measured at varying isocratic ratios ranging from 30 to 36% of solvent B at 1 mL·min^−1 mL. An injection volume of 10 µL was utilised. Capacity factors were determined according to Equation (1):(1) k=(TR−T0)/T0 where k is the capacity factor, TR is the retention time of the analyte, and T0 represents the dead time. A minimum of four different mobile compositions were used for each complex to calculate k. A linear plot was generated of log k against the concentration of CH3CN in the mobile phase to determine the value of log kw expressed by Equation (2):(2) logk=Sφ+logkw where S is the slope, φ is the concentration of the CH3CN in the mobile phase, and log kw represents the capacity factor of the complex in 100% d.i.H2O. Extrapolation of this linear plot to the y-intercept indicates the log kw value.

SJ-G2 glioblastoma = experiment: MTT growth inhibition assay, SJ-G2; assay type: cell-based, human; conditions: 72 h
HT29 colon cells = experiment: ROS detection assay (DCFH-DA); assay type: cell-based, human; conditions: HT29 colon cells, treated at GI50 concentration (TBHP positive control 20 μM)
From the text: Although ROS is required for cancer cell function and progression, it can induce programmed cell death or apoptosis. […] In this study, we report the ROS activity of the studied platinum(IV) complexes, 1–8, together with the individual axial ligands (4-CPA, 4-FPA, 4-BPA, and 4-IPA) in the human cancer cell line, HT29 colon (Figure 19, Table 8, and Figure S95). The ROS potential of their platinum(II) and platinum(IV) precursors in the same cell line is also presented for comparison purposes (Table 8). […] HT29 colon cells were stained by DCFH-DA and then treated with the complexes at each specific GI50 concentration. Upon ROS production, the DCFH-DA produced dichlorodihydrofluorescein, a fluorescent product. The measured fluorescence was, therefore, proportional to the produced ROS.
To investigate the presence of ROS in treated cells, a DCFDA/H2DCFDA-cellular ROS Assay Kit (Abcam, Cambridge, MA, USA) was used, as previously described. A total of 25,000 cells/mL of HT29 cells in DMEM were seeded in 96-well plates. Cells were washed with 1X kit buffer, and then stained with 25 μM 2′,7′-dichlorofluorescein diacetate (DCFH-DA) and incubated for 45 min. DCFH-DA was then removed, and cells were then re-washed with 1X kit buffer, after which phenol red free media was added. Cells were then treated with a GI50 drug concentration for each complex. The plates were directly scanned to measure fluorescence (relative fluorescence units (RFU)) at different time points using the Glo-Max®-Multimode microplate reader (Promega Corporation, Alexandra, VIC, Australia) at an excitation/emission of 485/535 nm. To generate the positive control (20 μM tert-butyl hydroperoxide (TBHP)), cells were washed with 1X kit buffer, and stained with DCFDA (25 μM) for 45 min; this was removed and TBHP was added in phenol red free media, and the resulting solution was scanned as described above.

BE2-C neuroblastoma = experiment: MTT growth inhibition assay, BE2-C; assay type: cell-based, human; conditions: 72 h
[4] = tested on: non-tumour derived MCF10A breast line; experiment: MTT growth inhibition assay, MCF10A; assay type: cell-based, human; conditions: 72 h
[5] = Du145 prostate, ratio of GI50 values

SMILES | GI50 (Du145 prostate) | GI50 (MCF-7 breast) | GI50 (U87 glioblastoma) | GI50 (A2780 ovarian) | GI50 (A431 skin) | GI50 (H460 lung) | GI50 (HT29 colon) | GI50 [1] | GI50 (panel of cell lines) | GI50 (MIA pancreas) | T50% (approximate time at which 50% reduction occurs) [2] | extent of reduction 1 h after the final 1H-NMR experiment (1D-195Pt-NMR) [2] | log kw [3] | log kw (y-intercept of log k versus [CH3CN] % plot, Figure S80) [3] | GI50 (SJ-G2 glioblastoma) | ROS production 24 h (HT29 colon cells) | ROS production 48 h (HT29 colon cells) | ROS production 72 h (HT29 colon cells) | GI50 (BE2-C neuroblastoma) | GI50 [4] | other results
Cc1c(C)c2c3c4c1=CC=C[N]4[Pt+2]([OH])([O]C(=O)Cc1ccc(Br)cc1)[N]3C=CC=2.N[C@H]1CCCC[C@@H]1N [Complex 6, [Pt^IV(5,6-Me2phen)(SS-DACH)(4-BPA)(OH)]^2+] | 1 ± 0.6 nM | 21 ± 5 nM | 35 ± 5 nM | 20 ± 3 nM | 19 ± 0.9 nM | 10 ± 2 nM | 7 ± 2 nM | 6 ± 2 nM | 22 ± 4 nM | 7 ± 2 nM | 30 min | partial reduction; also recorded: traces of platinum(IV) species were still observed | 1.07 | 1.0701 | 23 ± 5 nM | 496 ± 14 RFU | 598 ± 14 RFU | 643 ± 14 RFU | 100 ± 20 nM | 10 ± 2 nM | fold more potent than 56MESS (Du145 prostate; [5]): 4.6 fold; fold more potent than cisplatin (Du145 prostate; [5]): 1200 fold; fold more potent than cisplatin ([1]; ADDP-resistant ovarian variant, ratio of GI50 values): ~4700 fold
Cc1c(C)c2c3c4c1=CC=C[N]4[Pt+2]([OH])([O]C(=O)Cc1ccc(I)cc1)[N]3C=CC=2.N[C@H]1CCCC[C@@H]1N [Complex 8, [Pt^IV(5,6-Me2phen)(SS-DACH)(4-IPA)(OH)]^2+] | 100 ± 21 nM | 420 ± 62 nM | 900 ± 58 nM | 260 ± 45 nM | 430 ± 160 nM | 390 ± 33 nM | 178 ± 31 nM | 230 ± 15 nM | 387 ± 50 nM | 300 ± 55 nM | 5 to 10 min | complete reduction | 1.19 | 1.1909 | 520 ± 29 nM | 345 ± 19.3 RFU | 406 ± 14 RFU | 466 ± 13 RFU | 650 ± 81 nM | 260 ± 22 nM | –
N[C@H]1CCCC[C@@H]1N.O=C([O-])Cc1ccc(F)cc1.[OH-].[Pt+4].c1cnc2c(c1)ccc1cccnc12 [Complex 3, [Pt^IV(phen)(SS-DACH)(4-FPA)(OH)]^2+] | 100 ± 17 nM | 740 ± 60 nM | 1000 ± 150 nM | 340 ± 70 nM | 450 ± 60 nM | 320 ± 30 nM | 210 ± 30 nM | 250 ± 10 nM | 426 ± 60 nM | 230 ± 30 nM | 5 to 10 min | complete reduction | 0.25 | 0.249 | 337 ± 60 nM | 305 ± 28 RFU | 409 ± 22 RFU | 558 ± 13 RFU | 810 ± 200 nM | 320 ± 10 nM | –
Cc1c(C)c2c3c4c1=CC=C[N]4[Pt+2]([OH])([O]C(=O)Cc1ccc(F)cc1)[N]3C=CC=2.N[C@H]1CCCC[C@@H]1N [Complex 4, [Pt^IV(5,6-Me2phen)(SS-DACH)(4-FPA)(OH)]^2+] | 0.7 ± 0.4 nM | 23 ± 5 nM | 37 ± 5 nM | 20 ± 4 nM | 14 ± 2 nM | 10 ± 3 nM | 6 ± 2 nM | 6 ± 2 nM | 23 ± 4 nM | 5 ± 2 nM | 20 to 25 min | partial reduction | 0.80 | 0.8042 | 30 ± 8 nM | 579 ± 18 RFU | 681 ± 17 RFU | 738 ± 15 RFU | 110 ± 20 nM | 11 ± 3 nM | fold more potent than 56MESS (Du145 prostate; [5]): ~7 fold and 6.6 fold; fold more potent than cisplatin [1]: ~4700 fold
N[C@H]1CCCC[C@@H]1N.O=C([O-])Cc1ccc(Br)cc1.[OH-].[Pt+4].c1cnc2c(c1)ccc1cccnc12 [Complex 5, [Pt^IV(phen)(SS-DACH)(4-BPA)(OH)]^2+] | 110 ± 11 nM | 850 ± 240 nM | 1100 ± 230 nM | 380 ± 50 nM | 450 ± 10 nM | 320 ± 20 nM | 190 ± 20 nM | 250 ± 20 nM | 457 ± 70 nM | 200 ± 20 nM | 15 to 20 min | partial reduction | 0.87 | 0.8765 | 350 ± 20 nM | 281 ± 16 RFU | 399 ± 12 RFU | 478 ± 9 RFU | 960 ± 120 nM | 320 ± 20 nM | –
